Values quoted from earlier work as cited in article PMC3161514 (Chemistry & biology, 2011).

Key:
[1] = test system: methicillin-resistant S. aureus (MRSA); details: MIC values among the lowest reported for lantibiotics, ref Ekkelenkamp, et al., 2005, Verhoef
[2] = test system: vancomycin-resistant Enterococci (VRE); details: MIC values among the lowest reported for lantibiotics, ref Ekkelenkamp, et al., 2005, Verhoef
[3] = test system: several strains of S. aureus; details: against several strains of S. aureus; ref Castiglione, et al., 2008

epilancin 15X
Activity against MRSA [1]: active
Activity against VRE [2]: active

microbisporicin
Potency relative to epidermin [3]: two orders of magnitude more potent
